According to PMC9719519, “Non-classical ferroptosis inhibition by a small molecule targeting PHB2” (Nature Communications, 2022):

Legend:
Assay in all cases: biochemical
Parameters in all cases: Eurofins recombinant human kinase profiling, remaining kinase activity as % of control, 10 uM ATP
Details in all cases: ATP 10 uM; read-out: %Ctrl@10 μM
ACK1(h) = molecular target: T1, ACK1(h) (Homo sapiens, UniProt Q07912)
T1 construct: gene TNK2
In short: (§1)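 Activity measured in a commercial panel of 401 recombinant human protein kinases run as a kinase profiling service.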

AMPKα1(h) = molecular target: T2, AMPKα1(h) (Homo sapiens, UniProt Q13131)
T2 construct: gene PRKAA1
In short: as §1

BTK(h) = BTK(h) (Homo sapiens, UniProt Q06187)
In short: as §1

BrSK1(h) = BrSK1(h) (Homo sapiens, UniProt Q8TDC3)
In short: as §1

CDK18/cyclinY(h) = CDK18/cyclinY(h) (Homo sapiens, UniProt Q07002)
Sequence of CDK18/cyclinY(h) (Q07002 whole entry): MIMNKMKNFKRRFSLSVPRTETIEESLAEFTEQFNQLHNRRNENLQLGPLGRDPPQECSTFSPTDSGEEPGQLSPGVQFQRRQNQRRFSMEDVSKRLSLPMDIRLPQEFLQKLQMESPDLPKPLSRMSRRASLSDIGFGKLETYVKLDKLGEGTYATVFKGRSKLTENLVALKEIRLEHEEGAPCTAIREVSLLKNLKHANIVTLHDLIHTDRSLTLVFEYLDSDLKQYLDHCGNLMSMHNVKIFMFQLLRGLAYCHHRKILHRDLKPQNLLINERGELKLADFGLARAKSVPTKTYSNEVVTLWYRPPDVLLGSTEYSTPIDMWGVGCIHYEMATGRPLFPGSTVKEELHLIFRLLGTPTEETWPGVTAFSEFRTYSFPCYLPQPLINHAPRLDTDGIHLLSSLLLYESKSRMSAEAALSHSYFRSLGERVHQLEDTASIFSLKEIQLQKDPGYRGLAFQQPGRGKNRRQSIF
Sequence of CDK18/cyclinY(h) (Q8ND76 whole entry partner): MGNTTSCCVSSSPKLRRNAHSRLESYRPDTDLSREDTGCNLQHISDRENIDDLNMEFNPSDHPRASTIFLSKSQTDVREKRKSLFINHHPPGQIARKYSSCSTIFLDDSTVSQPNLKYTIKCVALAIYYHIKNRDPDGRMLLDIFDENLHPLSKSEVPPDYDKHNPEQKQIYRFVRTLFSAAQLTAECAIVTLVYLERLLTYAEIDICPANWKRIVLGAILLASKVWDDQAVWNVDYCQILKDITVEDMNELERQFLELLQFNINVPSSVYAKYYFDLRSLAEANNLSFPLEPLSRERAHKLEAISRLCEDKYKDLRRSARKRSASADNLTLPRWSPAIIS
In short: as §1

CDK9/cyclin T1(h) = CDK9/cyclin T1(h) (Homo sapiens, UniProt P50750)
In short: as §1

CK1γ3(h) = molecular target: T3, CK1γ3(h) (Homo sapiens, UniProt Q9Y6M4)
T3 construct: gene CSNK1G3
In short: as §1

CK2(h) = molecular target: T4, CK2(h) (Homo sapiens, UniProt P68400)
T4 construct: gene CSNK2A1
In short: as §1

CaMKIIα(h) = molecular target: T5, CaMKIIα(h) (Homo sapiens, UniProt Q9UQM7)
T5 construct: gene CAMK2A
In short: as §1

EGFR(h) = EGFR(h) (Homo sapiens, UniProt P00533)
In short: as §1

EphA5(h) = EphA5(h) (Homo sapiens, UniProt P54756)
Sequence of EphA5(h) (P54756 whole entry): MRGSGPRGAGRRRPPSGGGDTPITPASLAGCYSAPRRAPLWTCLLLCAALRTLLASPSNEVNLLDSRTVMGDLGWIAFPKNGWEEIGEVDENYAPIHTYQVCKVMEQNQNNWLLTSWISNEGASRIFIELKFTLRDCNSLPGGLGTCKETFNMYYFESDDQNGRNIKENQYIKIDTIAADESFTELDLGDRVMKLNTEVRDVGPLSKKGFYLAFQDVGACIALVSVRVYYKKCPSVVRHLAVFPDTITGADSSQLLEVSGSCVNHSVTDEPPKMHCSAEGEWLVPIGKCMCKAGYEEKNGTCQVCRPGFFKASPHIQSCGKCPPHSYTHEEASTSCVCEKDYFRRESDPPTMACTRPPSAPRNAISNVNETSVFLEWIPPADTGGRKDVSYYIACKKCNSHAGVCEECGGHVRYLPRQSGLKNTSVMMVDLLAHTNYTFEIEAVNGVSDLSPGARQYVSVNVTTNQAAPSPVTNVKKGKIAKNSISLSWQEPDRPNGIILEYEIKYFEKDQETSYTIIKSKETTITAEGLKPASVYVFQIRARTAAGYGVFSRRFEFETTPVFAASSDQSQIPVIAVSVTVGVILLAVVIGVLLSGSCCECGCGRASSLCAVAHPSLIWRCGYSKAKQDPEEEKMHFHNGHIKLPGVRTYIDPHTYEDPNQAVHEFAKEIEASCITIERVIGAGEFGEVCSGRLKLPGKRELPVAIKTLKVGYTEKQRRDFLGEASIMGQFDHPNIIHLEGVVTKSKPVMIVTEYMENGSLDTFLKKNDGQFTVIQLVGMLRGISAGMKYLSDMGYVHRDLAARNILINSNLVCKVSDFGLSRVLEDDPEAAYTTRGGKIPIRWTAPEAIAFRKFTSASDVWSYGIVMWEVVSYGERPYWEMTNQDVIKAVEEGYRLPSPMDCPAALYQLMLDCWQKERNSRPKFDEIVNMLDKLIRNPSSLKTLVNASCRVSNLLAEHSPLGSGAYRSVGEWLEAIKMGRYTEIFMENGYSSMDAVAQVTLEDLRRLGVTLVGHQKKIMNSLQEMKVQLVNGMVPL
In short: as §1

Fgr(h) = Fgr(h) (Homo sapiens, UniProt P09769)
In short: as §1

Hck(h) activated = Hck(h) activated (Homo sapiens, UniProt P08631)
In short: as §1

JNK3(h) = molecular target: T6, JNK3(h) (Homo sapiens, UniProt P53779)
T6 construct: gene MAPK10
In short: as §1

MARK4(h) = MARK4(h) (Homo sapiens, UniProt Q96L34)
In short: as §1

MLK2(h) = molecular target: T7, MLK2(h) (Homo sapiens, UniProt Q02779)
T7 construct: gene MAP3K10
T7 sequence (Q02779 whole entry): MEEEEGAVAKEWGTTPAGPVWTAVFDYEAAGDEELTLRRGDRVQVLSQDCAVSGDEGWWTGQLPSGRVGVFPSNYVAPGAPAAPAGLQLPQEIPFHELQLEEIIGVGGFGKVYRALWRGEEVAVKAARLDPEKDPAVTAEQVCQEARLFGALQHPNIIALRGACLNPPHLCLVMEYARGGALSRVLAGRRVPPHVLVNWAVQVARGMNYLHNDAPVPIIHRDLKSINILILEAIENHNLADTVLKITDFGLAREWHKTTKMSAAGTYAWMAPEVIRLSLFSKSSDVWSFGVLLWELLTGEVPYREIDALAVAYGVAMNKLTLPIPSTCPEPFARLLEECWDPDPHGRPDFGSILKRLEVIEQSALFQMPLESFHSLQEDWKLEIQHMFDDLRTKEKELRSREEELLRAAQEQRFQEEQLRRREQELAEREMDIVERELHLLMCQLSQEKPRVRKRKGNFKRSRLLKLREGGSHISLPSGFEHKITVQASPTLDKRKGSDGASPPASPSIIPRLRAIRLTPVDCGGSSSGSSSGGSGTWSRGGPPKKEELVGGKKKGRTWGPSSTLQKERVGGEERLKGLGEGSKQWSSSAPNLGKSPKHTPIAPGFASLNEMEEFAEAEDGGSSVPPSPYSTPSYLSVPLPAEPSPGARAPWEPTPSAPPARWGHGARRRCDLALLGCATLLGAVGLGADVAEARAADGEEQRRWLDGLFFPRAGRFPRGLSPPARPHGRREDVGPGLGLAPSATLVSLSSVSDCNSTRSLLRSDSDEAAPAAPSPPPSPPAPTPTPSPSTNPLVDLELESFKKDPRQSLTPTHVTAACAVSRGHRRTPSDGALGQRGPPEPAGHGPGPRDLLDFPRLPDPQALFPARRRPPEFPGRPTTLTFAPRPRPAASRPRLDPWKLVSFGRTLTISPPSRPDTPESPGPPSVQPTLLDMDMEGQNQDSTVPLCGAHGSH
In short: as §1

NUAK2(h) = NUAK2(h) (Homo sapiens, UniProt Q9H093)
In short: as §1

PAR-1Bα(h) = molecular target: T8, PAR-1Bα(h) (Homo sapiens, UniProt Q7KZI7)
T8 construct: gene MARK2
T8 sequence (Q7KZI7 whole entry): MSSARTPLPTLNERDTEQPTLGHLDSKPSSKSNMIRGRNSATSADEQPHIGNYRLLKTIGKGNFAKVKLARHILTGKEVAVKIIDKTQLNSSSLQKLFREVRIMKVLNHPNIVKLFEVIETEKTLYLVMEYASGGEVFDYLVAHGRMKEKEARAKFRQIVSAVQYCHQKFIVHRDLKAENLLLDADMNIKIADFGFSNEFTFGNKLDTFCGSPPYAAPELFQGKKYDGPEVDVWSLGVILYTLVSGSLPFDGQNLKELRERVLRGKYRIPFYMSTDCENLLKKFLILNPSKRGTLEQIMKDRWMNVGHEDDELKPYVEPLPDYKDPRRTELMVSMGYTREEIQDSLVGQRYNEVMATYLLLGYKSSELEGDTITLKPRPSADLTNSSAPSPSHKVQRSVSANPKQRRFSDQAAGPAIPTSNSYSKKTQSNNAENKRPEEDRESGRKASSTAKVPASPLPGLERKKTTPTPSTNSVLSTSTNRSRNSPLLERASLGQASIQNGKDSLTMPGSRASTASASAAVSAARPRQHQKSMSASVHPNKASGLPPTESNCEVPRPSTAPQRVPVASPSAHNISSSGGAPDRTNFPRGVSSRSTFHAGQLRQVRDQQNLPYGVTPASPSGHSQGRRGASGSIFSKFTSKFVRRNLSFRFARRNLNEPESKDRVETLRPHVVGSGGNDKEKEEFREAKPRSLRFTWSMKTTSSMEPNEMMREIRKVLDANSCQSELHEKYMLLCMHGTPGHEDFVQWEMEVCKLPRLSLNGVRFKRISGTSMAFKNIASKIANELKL
In short: as §1

Ret (V804L)(h) = Ret (V804L)(h) (Homo sapiens, UniProt P07949, V804L)
Sequence of Ret (V804L)(h) (P07949 whole entry V804L): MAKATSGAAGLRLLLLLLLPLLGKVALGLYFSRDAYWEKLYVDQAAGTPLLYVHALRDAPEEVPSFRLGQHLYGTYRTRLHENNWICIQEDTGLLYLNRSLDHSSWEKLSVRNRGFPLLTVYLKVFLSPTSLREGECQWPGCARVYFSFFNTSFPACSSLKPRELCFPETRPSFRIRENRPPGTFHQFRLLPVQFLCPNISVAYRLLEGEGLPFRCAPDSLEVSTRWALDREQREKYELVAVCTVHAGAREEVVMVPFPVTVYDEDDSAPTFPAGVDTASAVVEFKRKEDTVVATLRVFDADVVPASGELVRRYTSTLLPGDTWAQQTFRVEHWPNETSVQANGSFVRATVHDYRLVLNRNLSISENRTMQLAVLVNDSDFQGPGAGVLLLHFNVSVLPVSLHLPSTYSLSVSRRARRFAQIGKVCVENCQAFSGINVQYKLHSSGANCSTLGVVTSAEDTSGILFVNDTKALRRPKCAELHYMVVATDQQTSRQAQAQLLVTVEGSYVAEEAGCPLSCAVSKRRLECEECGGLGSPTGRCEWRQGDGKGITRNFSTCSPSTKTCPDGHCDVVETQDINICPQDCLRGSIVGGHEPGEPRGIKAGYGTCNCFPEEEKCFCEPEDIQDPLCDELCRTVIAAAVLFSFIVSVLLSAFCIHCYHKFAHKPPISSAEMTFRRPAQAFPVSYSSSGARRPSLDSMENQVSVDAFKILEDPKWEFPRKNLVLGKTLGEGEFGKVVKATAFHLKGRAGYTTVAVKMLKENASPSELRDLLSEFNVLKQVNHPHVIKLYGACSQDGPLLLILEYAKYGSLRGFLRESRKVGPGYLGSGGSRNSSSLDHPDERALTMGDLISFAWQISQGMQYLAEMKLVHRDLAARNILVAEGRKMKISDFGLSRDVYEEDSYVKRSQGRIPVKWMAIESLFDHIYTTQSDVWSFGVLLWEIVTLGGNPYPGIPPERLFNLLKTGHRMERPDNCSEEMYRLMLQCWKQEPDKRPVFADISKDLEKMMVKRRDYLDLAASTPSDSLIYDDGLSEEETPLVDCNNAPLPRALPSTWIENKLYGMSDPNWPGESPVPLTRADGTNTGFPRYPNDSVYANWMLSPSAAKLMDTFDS
In short: as §1

SBK1(h) = SBK1(h) (Homo sapiens, UniProt Q52WX2)
In short: as §1

Compound: C1=C(c2nc(-c3cnn(C4CCNCC4)c3)cn3cc(-c4ccccc4)nc23)CCOC1 [YL-939]
- remaining activity at 10 µM (ACK1(h)): 85%
- remaining activity at 10 µM (AMPKα1(h)): 90%
- remaining activity at 10 µM (BTK(h)): 83%
- remaining activity at 10 µM (BrSK1(h)): 91%
- remaining activity at 10 µM (CDK18/cyclinY(h)): 97%
- remaining activity at 10 µM (CDK9/cyclin T1(h)): 119%
- remaining activity at 10 µM (CK1γ3(h)): 102%
- remaining activity at 10 µM (CK2(h)): 97%
- remaining activity at 10 µM (CaMKIIα(h)): 64%
- remaining activity at 10 µM (EGFR(h)): 87%
- remaining activity at 10 µM (EphA5(h)): 96%
- remaining activity at 10 µM (Fgr(h)): 76%
- remaining activity at 10 µM (Hck(h) activated): 105%
- remaining activity at 10 µM (JNK3(h)): 65%
- remaining activity at 10 µM (MARK4(h)): 111%
- remaining activity at 10 µM (MLK2(h)): 82%
- remaining activity at 10 µM (NUAK2(h)): 72%
- remaining activity at 10 µM (PAR-1Bα(h)): 101%
- remaining activity at 10 µM (Ret (V804L)(h)): 81%
- remaining activity at 10 µM (SBK1(h)): 106%
